According to patent US9932637B2, “Genetic polymorphisms associated with cardiovascular disorders and drug response, methods of detection and uses thereof” (CELERA CORPORATION, priority 2003, dated 2018):

Tested on: patients with prior myocardial infarction (CARE study)
Assay: CARE: association of SNPs with pravastatin treatment in cardiovascular events prevention (logistic regression, odds ratio pravastatin vs placebo by genotype; Table 8)
Assay type: in vivo, human
Settings: for Definite Nonfatal MI, n/total (%) / Fatal/Nonfatal MI (def & prob), n/total (%) / MI (Fatal/Nonfatal), n/total (%) / Nonfatal MI (def & prob), n/total (%): BCL2A1 hCV7509650, All Patients
Text: In order to identify genetic markers associated with acute coronary events (e.g. MI, stroke, unstable angina, congestive heart failure, etc.) or response to statin treatment for the prevention of coronary events, samples from the Cholesterol and Recurrent Events (CARE) study (a randomized multicentral double-blinded trial on secondary prevention of acute coronary events with pravastatin) (Sacks et al., 1991, Am. J. Cardiol. 68: 1436-1446) were genotyped. A well-documented myocardial infarction (MI) was one of the enrollment criteria for entry into the CARE study. Patients were enrolled in the CARE trial from 80 participating study centers. […] Patients were randomized to receive either 40 mg of pravastatin once daily or a matching placebo. The primary endpoint of the trial was death from coronary heart disease and the median duration of follow-up was 5.0 years (range, 4.0 to 6.2 years). […] Secondary endpoints of other related cardiovascular or metabolic disease events, and changes in clinical variables were also recorded in pravastatin-treated and placebo groups. All individuals included in the study had signed a written informed consent form and the study protocol was approved by the respective Institutional Review Boards (IRBs).
For genotyping SNPs in CARE patient samples, DNA was extracted from blood samples using conventional DNA extraction methods such as the QIA-amp kit from Qiagen. Genotypes were obtained on an ABI PRISM® 7900HT Sequence Detection PCR system (Applied Biosystems, Foster City, Calif.) by kinetic allele-specific PCR, similar to the method described by Germer et al. (Germer S., Holland M. J., Higuchi R. 2000, Genome Res. 10: 258-266).
Statistical analysis for association of SNPs with pravastatin treatment in cardiovascular events prevention (Table 8) was carried out using an overall logistic regression model that included an intercept, a parameter for the effect of a genotype containing two rare alleles versus a genotype containing no rare alleles, a parameter for the effect of a genotype containing one rare allele versus a genotype containing no rare alleles, a parameter for the effect of use of pravastatin versus the use of placebo, and parameters for the interaction effects between SNP genotypes and pravastatin use. The test of the overall model is a chi-square test with two degrees of freedom for analyses containing all three genotypes, and one degree of freedom for analyses containing two genotypes.
Effect sizes were estimated through odds ratios (pravastatin group versus placebo) for carriers of each genotype (groups of 0, 1, and 2 minor allele carriers). The effect was considered to be significant if p-value for testing whether any of the interactions between SNP genotypes and pravastatin use were <0.05. […] Odds ratios less than one indicate that the specific SNP allele has a protective effect and odds ratios greater than one indicate that the specific SNP allele has an adverse effect.

[1] = CCL4 hCV12120554, All Patients, 0 Rare Alleles, Prava arm
[2] = CCL4 hCV12120554, All Patients, 1 Rare Allele, Prava arm

Question: `CC[C@H](C)C(=O)O[C@H]1C[C@H](O)C=C2C=C[C@H](C)[C@H](CC[C@@H](O)C[C@@H](O)CC(=O)O)[C@H]21` [pravastatin] was tested. Which “Odds ratio pravastatin vs placebo” value (APOE hCV905013, All Patients, Nonfatal MI (Probable/Definite), 1 rare allele) did it give?
Answer: 0.91

Question: And the “Odds ratio pravastatin vs placebo” value (APOE hCV905013, All Patients, Nonfatal MI (Probable/Definite), 2 rare alleles)?
Answer: 0.49

Question: And the “Definite Nonfatal MI, n/total (%)” value (0 Rare Alleles, Prava arm)?
Answer: (6.3%)

Question: What about the “Fatal/Nonfatal MI (def & prob), n/total (%)” value (from here on “Fatal/Nonfatal MI … (%)”) (0 Rare Alleles, Prava arm) of the same compound?
Answer: (8.7%)

Question: And the “MI (Fatal/Nonfatal), n/total (%)” value (0 Rare Alleles, Prava arm)?
Answer: (9.1%)

Question: What about the “Nonfatal MI (def & prob), n/total (%)” value (0 Rare Alleles, Prava arm) of the same compound?
Answer: (8.1%)

Question: And the “Definite Nonfatal MI, n/total (%)” value (1 Rare Allele, Prava arm)?
Answer: (7.9%)

Question: What about the “Fatal/Nonfatal MI … (%)” value (1 Rare Allele, Prava arm) of the same compound?
Answer: (11.4%)

Question: What about the “MI (Fatal/Nonfatal), n/total (%)” value (1 Rare Allele, Prava arm) of the same compound?
Answer: (11.4%)

Question: And the “Nonfatal MI (def & prob), n/total (%)” value (1 Rare Allele, Prava arm)?
Answer: (10.2%)

Question: And the “Definite Nonfatal MI, n/total (%)” value (2 Rare Alleles, Prava arm)?
Answer: (3.9%)

Question: What about the “Fatal/Nonfatal MI … (%)” value (2 Rare Alleles, Prava arm) of the same compound?
Answer: (6.9%)

Question: And the “MI (Fatal/Nonfatal), n/total (%)” value (2 Rare Alleles, Prava arm)?
Answer: (6.9%)

Question: And the “Nonfatal MI (def & prob), n/total (%)” value (2 Rare Alleles, Prava arm)?
Answer: (6.9%)

Question: And the “Odds ratio pravastatin vs placebo” value (BCL2A1 hCV7509650, All Patients, Definite Nonfatal MI, 0 rare alleles)?
Answer: 0.55

Question: And the “Odds ratio pravastatin vs placebo” value (BCL2A1 hCV7509650, All Patients, Definite Nonfatal MI, 1 rare allele)?
Answer: 1.09

Question: And the “Odds ratio pravastatin vs placebo” value (BCL2A1 hCV7509650, All Patients, Definite Nonfatal MI, 2 rare alleles)?
Answer: 0.35

Question: What about the “Odds ratio pravastatin vs placebo” value (BCL2A1 hCV7509650, All Patients, Fatal/Nonfatal MI (def & prob), 0 rare alleles) of the same compound?
Answer: 0.51

Question: And the “Odds ratio pravastatin vs placebo” value (BCL2A1 hCV7509650, All Patients, Fatal/Nonfatal MI (def & prob), 1 rare allele)?
Answer: 1.00

Question: What about the “Odds ratio pravastatin vs placebo” value (BCL2A1 hCV7509650, All Patients, Fatal/Nonfatal MI (def & prob), 2 rare alleles) of the same compound?
Answer: 0.46

Question: And the “Odds ratio pravastatin vs placebo” value (BCL2A1 hCV7509650, All Patients, MI (Fatal/Nonfatal), 0 rare alleles)?
Answer: 0.53

Question: What about the “Odds ratio pravastatin vs placebo” value (BCL2A1 hCV7509650, All Patients, MI (Fatal/Nonfatal), 1 rare allele) of the same compound?
Answer: 0.99

Question: What about the “Odds ratio pravastatin vs placebo” value (BCL2A1 hCV7509650, All Patients, MI (Fatal/Nonfatal), 2 rare alleles) of the same compound?
Answer: 0.46

Question: What about the “Odds ratio pravastatin vs placebo” value (BCL2A1 hCV7509650, All Patients, Nonfatal MI (def & prob), 0 rare alleles) of the same compound?
Answer: 0.52

Question: What about the “Odds ratio pravastatin vs placebo” value (BCL2A1 hCV7509650, All Patients, Nonfatal MI (def & prob), 1 rare allele) of the same compound?
Answer: 1.09

Question: What about the “Odds ratio pravastatin vs placebo” value (BCL2A1 hCV7509650, All Patients, Nonfatal MI (def & prob), 2 rare alleles) of the same compound?
Answer: 0.56

Question: And the “Cardiovascular Mortality, n/total (%)” value [1]?
Answer: (4.0%)

Question: What about the “Fatal Atherosclerotic Cardiovascular Disease, n/total (%)” value [1] of the same compound?
Answer: (4.0%)

Question: What about the “Fatal Coronary Heart Disease, n/total (%)” value [1] of the same compound?
Answer: (3.5%)

Question: What about the “Fatal/Nonfatal Atherosclerotic CV Disease, n/total (%)” value [1] of the same compound?
Answer: (34.4%)

Question: What about the “Total Coronary Heart Disease Events, n/total (%)” value [1] of the same compound?
Answer: (30.5%)

Question: What about the “Total Mortality, n/total (%)” value [1] of the same compound?
Answer: (6.0%)

Question: And the “Cardiovascular Mortality, n/total (%)” value [2]?
Answer: (2.5%)

Question: What about the “Fatal Atherosclerotic Cardiovascular Disease, n/total (%)” value [2] of the same compound?
Answer: (2.2%)

Question: What about the “Fatal Coronary Heart Disease, n/total (%)” value [2] of the same compound?
Answer: (2.2%)

Question: What about the “Fatal/Nonfatal Atherosclerotic CV Disease, n/total (%)” value [2] of the same compound?
Answer: (29.9%)

Question: What about the “Total Coronary Heart Disease Events, n/total (%)” value [2] of the same compound?
Answer: (25.1%)

Question: What about the “Total Mortality, n/total (%)” value [2] of the same compound?
Answer: (4.0%)

Question: And the “Odds ratio pravastatin vs placebo” value (CCL4 hCV12120554, All Patients, Cardiovascular Mortality, 0 rare alleles)?
Answer: 1.30

Question: What about the “Odds ratio pravastatin vs placebo” value (CCL4 hCV12120554, All Patients, Cardiovascular Mortality, 1 rare allele) of the same compound?
Answer: 0.31

Question: What about the “Odds ratio pravastatin vs placebo” value (CCL4 hCV12120554, All Patients, Fatal Atherosclerotic Cardiovascular Disease, 0 rare alleles) of the same compound?
Answer: 1.30

Question: And the “Odds ratio pravastatin vs placebo” value (CCL4 hCV12120554, All Patients, Fatal Atherosclerotic Cardiovascular Disease, 1 rare allele)?
Answer: 0.28

Question: What about the “Odds ratio pravastatin vs placebo” value (CCL4 hCV12120554, All Patients, Fatal Coronary Heart Disease, 0 rare alleles) of the same compound?
Answer: 1.28

Question: What about the “Odds ratio pravastatin vs placebo” value (CCL4 hCV12120554, All Patients, Fatal Coronary Heart Disease, 1 rare allele) of the same compound?
Answer: 0.31

Question: What about the “Odds ratio pravastatin vs placebo” value (CCL4 hCV12120554, All Patients, Fatal/Nonfatal Atherosclerotic CV Disease, 0 rare alleles) of the same compound?
Answer: 0.86

Question: And the “Odds ratio pravastatin vs placebo” value (CCL4 hCV12120554, All Patients, Fatal/Nonfatal Atherosclerotic CV Disease, 1 rare allele)?
Answer: 0.55

Question: What about the “Odds ratio pravastatin vs placebo” value (CCL4 hCV12120554, All Patients, Total Coronary Heart Disease Events, 0 rare alleles) of the same compound?
Answer: 0.87

Question: What about the “Odds ratio pravastatin vs placebo” value (CCL4 hCV12120554, All Patients, Total Coronary Heart Disease Events, 1 rare allele) of the same compound?
Answer: 0.55

Question: And the “Odds ratio pravastatin vs placebo” value (CCL4 hCV12120554, All Patients, Total Mortality, 0 rare alleles)?
Answer: 1.17

Question: And the “Odds ratio pravastatin vs placebo” value (CCL4 hCV12120554, All Patients, Total Mortality, 1 rare allele)?
Answer: 0.40

Question: What about the “Total Coronary Heart Disease Events, n/total (%)” value (CCL11 hCV7449808, All Patients, 0 Rare Alleles, Prava, n/total 310/1025) of the same compound?
Answer: (30.2%)

Question: And the “Fatal/Non-fatal Atherosclerotic CV Disease, n/total (%)” value (CCL11 hCV7449808, All Patients, 0 Rare Alleles, Prava, n/total 359/1025)?
Answer: (35.0%)

Question: And the “Hosp. for Cardiovascular Disease, n/total (%)” value (CCL11 hCV7449808, All Patients, 0 Rare Alleles, Prava, n/total 423/1025)?
Answer: (41.3%)

Question: And the “Total Cardiovascular Disease Events, n/total (%)” value (CCL11 hCV7449808, All Patients, 0 Rare Alleles, Prava, n/total 436/1025)?
Answer: (42.5%)

Question: What about the “Total Coronary Heart Disease Events, n/total (%)” value (CCL11 hCV7449808, All Patients, 1 Rare Allele, Prava, n/total 127/448) of the same compound?
Answer: (28.3%)

Question: What about the “Fatal/Non-fatal Atherosclerotic CV Disease, n/total (%)” value (CCL11 hCV7449808, All Patients, 1 Rare Allele, Prava, n/total 139/448) of the same compound?
Answer: (31.0%)

Question: What about the “Hosp. for Cardiovascular Disease, n/total (%)” value (CCL11 hCV7449808, All Patients, 1 Rare Allele, Prava, n/total 176/448) of the same compound?
Answer: (39.3%)

Question: And the “Total Cardiovascular Disease Events, n/total (%)” value (CCL11 hCV7449808, All Patients, 1 Rare Allele, Prava, n/total 181/448)?
Answer: (40.4%)
